US20090048269A1 (AstraZeneca AB, priority 2007, published 2009)

Experiments:
[1] = target: T1, human ALK5 (Homo sapiens, UniProt P36897); assay: ALK5 Enzyme Assay 1; format: biochemical; parameters: 6His tagged ALK5 protein (amino acids 162-503) expressed in insect cells; 6His; made in house; host or cells: insect cells
T1 sequence (P36897 162-503): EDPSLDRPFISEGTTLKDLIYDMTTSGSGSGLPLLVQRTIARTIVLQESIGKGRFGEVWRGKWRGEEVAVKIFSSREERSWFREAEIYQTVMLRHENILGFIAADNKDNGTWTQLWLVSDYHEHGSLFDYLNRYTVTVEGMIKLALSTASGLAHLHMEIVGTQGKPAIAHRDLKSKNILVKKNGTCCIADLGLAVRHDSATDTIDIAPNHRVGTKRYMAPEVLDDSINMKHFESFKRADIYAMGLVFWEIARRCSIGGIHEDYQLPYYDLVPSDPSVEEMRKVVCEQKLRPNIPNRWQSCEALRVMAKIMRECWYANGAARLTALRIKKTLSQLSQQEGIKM
Description: This assay measures the ability of a compound to bind to and inhibit the activity of ALK5 protein in vitro. […] Assay measurements were performed in assay buffer comprising 60 mM HEPES pH 7.4, 3 mM MgCl2, 3 mM MnCl2, 3 μM Na orthovanadate, 1.2 mM DTT and 0.05% PEG2000. […] Reactions were performed in the presence of 200 μg/mL casein (Sigma-Aldrich C4765-10ML), 200 ng/mL ALK5, 0.5 μM ATP (Sigma-Aldrich A7699), 1 μCi/mL γ-33P ATP. Following addition of casein, ATP and compound, reactions were initiated by adding ALK5 enzyme and reactions run for 90 minutes. After incubation reactions were terminated by addition of 20 μL per well of 50% orthophosphoric acid. 20 minutes after addition of 70% v/v TCA, precipitated protein was transferred to GF/C 96 well plates using a Tomtec harvester with 1.5% orthophosphoric acid. […] All reactions were performed under linear kinetics.

[2] = target: T1, human ALK5; assay: ALK5 Enzyme Assay 2 (fluorescence polarisation probe displacement); format: binding; parameters: 6His tagged human ALK5 (residues162-503) was grown and purified from insect cells; 6His; made in house; host or cells: insect cells
Method in brief: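 Recombinant ALK5 (3 μg/mL) incubated with test compound in 50 mM HEPES pH7.4, 10 mM MgCl2, 1 mM DTT, 0.01% CHAPS. Displacement of a fluorescent quinazoline-based ALK5 probe (50 nM final) in presence of 1 μM ATP read by fluorescence polarisation.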

[3] = read-out: EAA: activity (μM) using Enzyme Assay 1
[4] = read-out: EAA2: activity (μM) using Enzyme Assay 2

Structure (SMILES)	IC50 [1, 3] [µM]	IC50 [2, 4] [µM]	IC50 ([1]; EAA: activity (μM) using Enzyme Assay 1) [µM]	IC50 [2] [µM]
CCn1nccc1Nc1cc(Oc2cc(C)c(C)nc2-c2ccccn2)ccn1 [Example 32, 4-(5,6-Dimethyl-2-pyridin-2-yl-pyridin-3-yl)oxy-N-(2-ethylpyrazol-3-yl)-pyridin-2-amine]	0.0425	0.0339	–	–
Cc1cc(Oc2ccnc(Nc3ccc(CO)cc3)c2)c(-c2ccccn2)nc1C [Example 33, (4-{[4-(5,6-Dimethyl-2-pyridin-2-yl-pyridin-3-yl)-oxypyridin-2-yl]amino}phenyl)methanol]	0.0172	0.0167	–	–
Cc1cc(Oc2ccnc(Nc3cccc(Cl)c3)c2)c(-c2ccccn2)nc1C [Example 12, N-(3-Chlorophenyl)-4-(5,6-dimethyl-2-pyridin-2-yl-pyridin-3-yl)-oxy-pyridin-2-amine]	0.0073	0.0418	–	–
Cc1cc(Oc2ccnc(Nc3ccc4[nH]ccc4c3)c2)c(-c2ccccn2)nc1C [Example 35, N-[4-(5,6-Dimethyl-2-pyridin-2-yl-pyridin-3-yl)-oxypyridin-2-yl]-1H-indol-5-amine]	0.205	0.463	–	–
COc1ccc(S(C)(=O)=O)cc1Nc1cc(Oc2cc(C)c(C)nc2-c2ccccn2)ccn1 [Example 17, 4-(5,6-Dimethyl-2-pyridin-2-yl-pyridin-3-yl)oxy-N-(2-methoxy-5-methylsulfonyl-phenyl)pyridin-2-amine]	0.0147	0.0514	–	–
Cc1cc(Oc2ccnc(Nc3cc(N4CCOCC4)cc(N4CCOCC4)c3)c2)c(-c2ccccn2)nc1C [Example 21, 4-(5,6-Dimethyl-2-pyridin-2-yl-pyridin-3-yl)oxy-N-(3,5-dimorpholin-4-ylphenyl)pyridin-2-amine]	0.0772	0.125	–	–
Cc1cc(Oc2ccnc(Nc3ccc(F)cc3F)c2)c(-c2ccccn2)nc1C [Example 37, N-(2,4-Difluorophenyl)-4-(5,6-dimethyl-2-pyridin-2-yl-pyridin-3-yl)oxy-pyridin-2-amine]	0.036	0.0216	–	–
CCc1ccc(Oc2ccnc(Nc3ccc(S(N)(=O)=O)cc3)c2)c(-c2ccccn2)n1 [Example 44, 4-{[4-(6-Ethyl-2-pyridin-2-yl-pyridin-3-yl)oxypyridin-2-yl]-amino}benzene-sulfonamide]	0.0161	0.0165	–	–
Cc1cc(Oc2ccnc(Nc3ccc(Cl)cc3)c2)c(-c2ccccn2)nc1C [Example 30, N-(4-Chlorophenyl)-4-(5,6-dimethyl-2-pyridin-2-yl-pyridin-3-yl)oxy-pyridin-2-amine]	1.67	0.894	–	–
Cc1cc(Oc2ccnc(Nc3cccnc3)c2)c(-c2ccccn2)nc1C [Example 15, 4-(5,6-Dimethyl-2-pyridin-2-yl-pyridin-3-yl)oxy-N-pyridin-3-yl-pyridin-2-amine]	0.0129	0.0147	–	–
Cc1ccc(Oc2ccnc(Nc3ccc(S(N)(=O)=O)cc3)c2)c(-c2ccccn2)n1 [Example 43, 4-{[4-(6-Methyl-2-pyridin-2-yl-pyridin-3-yl)oxypyridin-2-yl]-amino}benzene-sulfonamide]	0.0162	0.00728	–	–
Cc1cc(Oc2ccnc(Nc3ccc(F)cc3)c2)c(-c2ccccn2)nc1C [Example 10, 4-(5,6-Dimethyl-2-pyridin-2-yl-pyridin-3-yl)oxy-N-(4-fluorophenyl)pyridin-2-amine]	0.017	0.0883	–	–
Cc1cc(Oc2ccnc(Nc3ccc(N4CCN(C)CC4)cc3)c2)c(-c2ccccn2)nc1C [Example 20, 4-(5,6-Dimethyl-2-pyridin-2-yl-pyridin-3-yl)oxy-N-[4-(4-methyl-piperazin-1-yl)phenyl]pyridin-2-amine]	0.0104	0.0166	–	–
Cc1cc(Oc2ccnc(Nc3ccc(S(N)(=O)=O)cc3)c2)c(-c2ccccn2)nc1C [Example 26, 4-{[4-(5,6-Dimethyl-2-pyridin-2-yl-pyridin-3-yl)oxypyridin-2-yl]-amino}benzenesulfonamide]	0.0219	0.0124	–	–

Now from value to compound:

IC50 [1, 3] [µM]	IC50 [2, 4] [µM]	IC50 ([1]; EAA: activity (μM) using Enzyme Assay 1) [µM]	IC50 [2] [µM]	Structure (SMILES)
0.00951	0.056	–	–	COc1cc(Nc2cc(Oc3cc(C)c(C)nc3-c3nc(C)c(C)s3)ccn2)cc(OC)c1OC [Example 4, {4-[2-(4,5-Dimethyl-thiazol-2-yl)-5,6-dimethyl-pyridin-3-yloxy]-pyridin-2-yl}-(3,4,5-trimethoxy-phenyl)-amine]
0.00782	0.00804	–	–	COc1cc(Nc2cc(Oc3cccnc3-c3ccccc3)ccn2)cc(OC)c1OC [Example 49, 4-(2-Phenylpyridin-3-yl)oxy-N-(3,4,5-trimethoxyphenyl)pyridin-2-amine]
0.00379	0.0795	–	–	COc1cc(Nc2cc(Oc3ccc(C)nc3-c3cccc(F)c3)ccn2)cc(OC)c1OC [Example 56, 4-[2-(3-Fluoro-phenyl)-6-methyl-pyridin-3-yl]oxy-N-(3,4,5-trimethoxy-phenyl)pyridin-2-amine]
0.114	0.187	–	–	COc1cc(Nc2cc(Oc3cccnc3C)ccn2)cc(OC)c1OC [Example 9, 4-(2-Methylpyridin-3-yl)oxy-N-(3,4,5-trimethoxyphenyl)-pyridin-2-amine]
0.174	0.294	–	–	COc1cc(Nc2cc(Oc3ccc(C)nc3)ccn2)cc(OC)c1OC [Example 8, 4-(6-Methylpyridin-3-yl)oxy-N-(3,4,5-trimethoxyphenyl)-pyridin-2-amine]
0.00929	0.0346	–	–	COc1cc(Nc2cc(Oc3ccc(C)nc3-c3cccc(Cl)c3)ccn2)cc(OC)c1OC [Example 55, 4-[2-(3-Chlorophenyl)-6-methyl-pyridin-3-yl]oxy-N-(3,4,5-trimethoxyphenyl)-pyridin-2-amine]
0.0274	0.0459	–	–	CCc1ccc(Oc2ccnc(Nc3cc(OC)c(OC)c(OC)c3)c2)c(-c2cccc(C)n2)n1 [Example 3, 4-[6-Ethyl-2-(6-methylpyridin-2-yl)pyridin-3-yl]oxy-N-(3,4,5-trimethoxy-phenyl)pyridin-2-amine]
0.0248	0.0108	–	–	COc1cc(Nc2cc(Oc3ccc(C)nc3-c3ccccn3)ccn2)cc(OC)c1OC [Example 47, 4-(6-Methyl-2-pyridin-2-yl-pyridin-3-yl)oxy-N-(3,4,5-trimethoxy-phenyl)pyridin-2-amine]
5.5	1.97	–	–	COc1cc(Nc2cc(Oc3cccnc3)ccn2)cc(OC)c1OC [Example 6, 4-Pyridin-3-yloxy-N-(3,4,5-trimethoxyphenyl)pyridin-2-amine]
0.0751	0.0486	–	–	COc1cc(Nc2cc(Oc3ccc(C)nc3-c3cnccn3)ccn2)cc(OC)c1OC [Example 48, 4-(6-Methyl-2-pyrazin-2-yl-pyridin-3-yl)oxy-N-(3,4,5-trimethoxy-phenyl)pyridin-2-amine]
0.23	0.0274	–	–	COc1cc(Nc2cc(Oc3cccnc3-c3ccc(NC(C)=O)cc3)ccn2)cc(OC)c1OC [Example 51, N-[4-(3-{2-[(3,4,5-Trimethoxyphenyl)amino]pyridin-4-yl}-oxypyridin-2-yl)phenyl]acetamide]
–	–	0.0206	0.0349	COc1cc(Nc2cc(Oc3ccc(C)nc3C)ccn2)cc(OC)c1OC [Example 7, 4-(2,6-Dimethylpyridin-3-yl)oxy-N-(3,4,5-trimethoxyphenyl)-pyridin-2-amine]
0.0153	0.0169	–	–	COc1cc(Nc2cc(Oc3ccc(C)nc3-c3cnn(C)c3)ccn2)cc(OC)c1OC [Example 5, 4-[6-Methyl-2-(1-methylpyrazol-4-yl)pyridin-3-yl]oxy-N-(3,4,5-trimethoxy-phenyl)pyridin-2-amine]
0.0156	0.0329	–	–	COc1cc(Nc2cc(Oc3cccnc3-c3ccc(F)cc3)ccn2)cc(OC)c1OC [Example 52, 4-[2-(4-Fluorophenyl)pyridin-3-yl]oxy-N-(3,4,5-trimethoxy-phenyl)pyridin-2-amine]
0.126	0.0308	–	–	COc1cc(Nc2cc(Oc3cccnc3-c3ccccc3C#N)ccn2)cc(OC)c1OC [Example 50, 2-(3-{2-[(3,4,5-Trimethoxyphenyl)amino]pyridin-4-yl}-oxypyridin-2-yl)benzonitrile]
0.0783	0.089	–	–	COc1cc(Nc2cc(Oc3cccnc3-c3cccc(C)n3)ccn2)cc(OC)c1OC [Example 1, 4-[2-(6-Methylpyridin-2-yl)pyridin-3-yl]oxy-N-(3,4,5-trimethoxy-phenyl)pyridin-2-amine]
